Assay results: patent US20120178766A1, “FUROPYRIMIDINEDIONE DERIVATIVES AS TRPAI MODULATORS” (priority 2009, published 2012)

Key:
[1] = target: T1, human TRPA1 (Homo sapiens, UniProt O75762); assay: 45Calcium uptake assay: inhibition of AITC induced cellular uptake of radioactive calcium, human TRPA1 expressing CHO cells; assay type: cell-based; conditions: AITC 30 μM; for inhibition at 1 µM: 1.0 μM compound, read-out: human TRPA1 Percentage inhibition at 1.0 μM; for inhibition at 10 µM: 10.0 μM compound, read-out: human TRPA1 Percentage inhibition at 10.0 μM
T1 construct: expressed in transfected cells; host or cells: CHO cells (G-418 selection)
Source text: The illustrative examples of the present invention are screened for TRPA1 activity according to a modified procedure described in (a) Tóth, A. et al. Life Sciences, 2003, 73, 487-498. (b) McNamara C, R. et al, Proc. Natl. Acad. Sci. U.S.A., 2007, 104, 13525-13530. The screening of the compounds can be carried out by other methods and procedures known to persons skilled in the art.
(§1) Screening for TRPA1 Antagonist Using the ^45Calcium Uptake Assay:
(§2) The inhibition of TRPA1 receptor activation was measured as inhibition of allyl isothiocyanate (AITC) induced cellular uptake of radioactive calcium.
Test compounds were dissolved in 100% DMSO to prepare 10 mM stock and then diluted using plain medium with 0.1% BSA and 1.8 mM CaCl2 to get the desired concentration. The final concentration of DMSO in the reaction was 0.5% (v/v). Human TRPA1 expressing CHO cells were grown in F-12 DMEM medium with 10% FBS, 1% penicillin-streptomycin solution, and 400 μg/ml of G-418. Rat TRPA1 expressing CHO cells were grown in F-12 DMEM medium with 10% FBS, 1% penicillin-streptomycin solution, and 400 μg/ml of Zeocin. Cells were seeded 24 h prior to the assay in 96 well plates so as to get ˜50,000 cells per well on the day of experiment. Cells were treated with the test compounds for 10 minutes followed by the addition of AITC at a final concentration of 30 μM (for human TRPA1) and/or 10 μM (for rat TRPA1) and 5 μCi/ml ^45Ca^+2 for 3 minutes. Cells were washed and lysed using a buffer containing 1% Triton X-100, 0.1% deoxycholate and 0.1% SDS. Radioactivity in the lysate was measured in a Packard TopCount after addition of liquid scintillant. (Toth et al, Life Sciences (2003) 73, 487-498; McNamara C R et al, Proceedings of the National Academy of Sciences, (2007) 104, 13525-13530).
(§3) Concentration response curves were plotted as a % of maximal response obtained in the absence of test antagonist. IC50 values can be calculated from concentration response curve by nonlinear regression analysis using GraphPad PRISM software.

[2] = target: T2, rat TRPA1 (Rattus norvegicus, UniProt Q6RI86); assay: 45Calcium uptake assay: inhibition of AITC induced cellular uptake of radioactive calcium, rat TRPA1 expressing CHO cells; assay type: cell-based; conditions: AITC 10 μM; for inhibition at 10 µM: 10.0 μM compound, read-out: rat TRPA1 Percentage inhibition at 10.0 μM; for inhibition at 1 µM: read-out: rat TRPA1 Percentage inhibition; for IC50: class symbols
T2 construct: expressed in transfected cells; host or cells: CHO cells (Zeocin selection)
Experimental: as §1, §2
Test compounds were dissolved in 100% DMSO to prepare 10 mM stock and then diluted using plain medium with 0.1% BSA and 1.8 mM CaCl2 to get the desired concentration. The final concentration of DMSO in the reaction was 0.5% (v/v). […] Rat TRPA1 expressing CHO cells were grown in F-12 DMEM medium with 10% FBS, 1% penicillin-streptomycin solution, and 400 μg/ml of Zeocin. […] Cells were treated with the test compounds for 10 minutes followed by the addition of AITC at a final concentration of 30 μM (for human TRPA1) and/or 10 μM (for rat TRPA1) and 5 μCi/ml ^45Ca^+2 for 3 minutes. Cells were washed and lysed using a buffer containing 1% Triton X-100, 0.1% deoxycholate and 0.1% SDS. Radioactivity in the lysate was measured in a Packard TopCount after addition of liquid scintillant.
as §3

T1 sequence (O75762 whole entry): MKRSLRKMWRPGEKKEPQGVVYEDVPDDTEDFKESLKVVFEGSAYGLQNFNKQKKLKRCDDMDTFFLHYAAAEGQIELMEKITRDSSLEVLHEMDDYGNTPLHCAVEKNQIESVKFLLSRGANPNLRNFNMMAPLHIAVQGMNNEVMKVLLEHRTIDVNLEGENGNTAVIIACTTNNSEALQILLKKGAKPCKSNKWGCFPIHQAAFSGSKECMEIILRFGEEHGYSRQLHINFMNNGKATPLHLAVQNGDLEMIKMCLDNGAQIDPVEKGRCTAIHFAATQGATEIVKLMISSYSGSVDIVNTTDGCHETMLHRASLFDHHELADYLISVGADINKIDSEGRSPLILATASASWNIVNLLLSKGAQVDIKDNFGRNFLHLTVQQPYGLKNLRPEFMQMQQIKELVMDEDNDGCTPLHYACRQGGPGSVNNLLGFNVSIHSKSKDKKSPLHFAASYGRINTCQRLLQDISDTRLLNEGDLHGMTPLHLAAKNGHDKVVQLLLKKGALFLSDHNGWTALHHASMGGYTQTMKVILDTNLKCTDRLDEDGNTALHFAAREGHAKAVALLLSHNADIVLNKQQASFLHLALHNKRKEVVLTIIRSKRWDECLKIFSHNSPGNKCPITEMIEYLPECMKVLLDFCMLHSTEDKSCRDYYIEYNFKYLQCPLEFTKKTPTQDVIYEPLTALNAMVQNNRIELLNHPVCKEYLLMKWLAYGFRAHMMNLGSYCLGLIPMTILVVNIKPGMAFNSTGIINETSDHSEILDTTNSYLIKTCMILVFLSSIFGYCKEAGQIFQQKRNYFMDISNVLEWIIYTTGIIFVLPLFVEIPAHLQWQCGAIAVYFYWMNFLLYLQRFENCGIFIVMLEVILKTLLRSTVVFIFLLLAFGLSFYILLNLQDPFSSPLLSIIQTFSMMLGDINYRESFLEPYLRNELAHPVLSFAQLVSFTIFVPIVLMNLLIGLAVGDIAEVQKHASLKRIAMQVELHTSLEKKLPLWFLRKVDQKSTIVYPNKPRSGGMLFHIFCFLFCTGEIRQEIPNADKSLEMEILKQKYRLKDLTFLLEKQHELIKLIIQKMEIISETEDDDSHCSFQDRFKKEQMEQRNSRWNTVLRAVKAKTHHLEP
T2 sequence (Q6RI86 whole entry): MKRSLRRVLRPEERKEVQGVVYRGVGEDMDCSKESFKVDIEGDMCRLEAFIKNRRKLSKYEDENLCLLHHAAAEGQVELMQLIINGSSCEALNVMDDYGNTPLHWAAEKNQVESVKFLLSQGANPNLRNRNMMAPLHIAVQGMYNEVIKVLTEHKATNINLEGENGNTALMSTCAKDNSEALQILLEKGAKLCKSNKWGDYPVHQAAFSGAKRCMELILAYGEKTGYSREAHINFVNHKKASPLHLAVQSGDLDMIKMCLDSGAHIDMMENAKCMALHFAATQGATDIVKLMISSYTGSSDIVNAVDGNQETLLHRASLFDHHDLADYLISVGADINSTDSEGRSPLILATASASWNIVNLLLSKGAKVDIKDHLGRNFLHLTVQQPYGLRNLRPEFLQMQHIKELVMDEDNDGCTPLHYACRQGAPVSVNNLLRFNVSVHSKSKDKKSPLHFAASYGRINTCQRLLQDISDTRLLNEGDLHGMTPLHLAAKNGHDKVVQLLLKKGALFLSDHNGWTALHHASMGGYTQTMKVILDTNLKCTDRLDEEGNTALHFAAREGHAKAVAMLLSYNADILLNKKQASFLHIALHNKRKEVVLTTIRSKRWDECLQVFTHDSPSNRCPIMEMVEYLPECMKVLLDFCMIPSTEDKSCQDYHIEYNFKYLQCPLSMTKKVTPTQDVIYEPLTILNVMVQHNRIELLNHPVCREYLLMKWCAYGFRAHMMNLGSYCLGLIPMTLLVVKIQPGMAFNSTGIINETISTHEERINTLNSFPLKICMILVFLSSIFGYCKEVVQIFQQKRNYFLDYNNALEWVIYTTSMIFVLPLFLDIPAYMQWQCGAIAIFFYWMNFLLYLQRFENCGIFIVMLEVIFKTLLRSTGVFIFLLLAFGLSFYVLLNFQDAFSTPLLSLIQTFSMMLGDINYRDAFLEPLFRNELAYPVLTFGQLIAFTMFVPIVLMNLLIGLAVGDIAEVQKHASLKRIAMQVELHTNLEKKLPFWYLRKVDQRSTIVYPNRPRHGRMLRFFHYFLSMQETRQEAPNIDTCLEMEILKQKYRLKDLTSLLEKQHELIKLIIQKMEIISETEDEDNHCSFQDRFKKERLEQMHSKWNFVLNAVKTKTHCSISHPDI

IC50 ([1]; class symbols) | inhibition at 10 µM [2] | inhibition at 1 µM [2] | inhibition at 1 µM [1] | inhibition at 10 µM [1] | IC50 [2] | IC50 ([1]; numeric values) | SMILES
< 50 nM |  |  | 98.8% | 99.8% |  |  | Cn1c(=O)c2c(CC(=O)Nc3nc(-c4cccc(C(F)(F)F)c4)cs3)coc2n(C)c1=O [Example 7, N1-{4-[3-(Trifluoromethyl)phenyl]-1,3-thiazol-2-yl}-2-(1,3-dimethyl-2,4-dioxo-1,2,3,4-tetrahydrofuro[2,3-d]pyrimidin-5-yl)acetamide]
< 50 nM | 100% | 100% | 93.2% | 98.8% | < 50 nM |  | Cn1c(=O)c2c(CC(=O)Nc3nc(-c4ccc(OC(F)(F)F)cc4)cs3)coc2n(C)c1=O [Example 8, N1-[4-(4-Trifluorormethoxyphenyl)-1,3-thiazol-2-yl]-2-(1,3-dimethyl-2,4-dioxo-1,2,3,4-tetrahydrofuro[2,3-d]pyrimidin-5-yl)acetamide]
< 50 nM |  |  | 99.3% | 100% |  |  | Cn1c(=O)c2c(CC(=O)Nc3nc(-c4cccc(OC(F)(F)F)c4)cs3)coc2n(C)c1=O [Example 9, N1-[4-(3-Trifluorormethoxyphenyl)-1,3-thiazol-2-yl]-2-(1,3-dimethyl-2,4-dioxo-1,2,3,4-tetrahydrofuro[2,3-d]pyrimidin-5-yl)acetamide]
< 50 nM | 100% | 97.5% | 98.5% | 97.7% | 50 to 100 nM |  | Cn1c(=O)c2c(CC(=O)Nc3nc(-c4ccc(F)c(Br)c4)cs3)coc2n(C)c1=O [Example 10, N1-[4-(3-Bromo-4-fluorophenyl)-1,3-thiazol-2-yl]-2-(1,3-dimethyl-2,4-dioxo-1,2,3,4-tetrahydrofuro[2,3-d]pyrimidin-5-yl)acetamide]
50 to 100 nM |  |  | 98.8% | 99.4% |  |  | Cn1c(=O)c2c(CC(=O)Nc3nc(-c4ccc(F)c(F)c4)cs3)coc2n(C)c1=O [Example 11, N1-[4-(3,4-Difluorophenyl)-1,3-thiazol-2-yl]-2-(1,3-dimethyl-2,4-dioxo-1,2,3,4-tetrahydrofuro[2,3-d]pyrimidin-5-yl)acetamide]
> 100 nM |  |  | 97.9% | 98.4% |  |  | Cn1c(=O)c2c(CC(=O)Nc3nc(-c4ccc(F)cc4F)cs3)coc2n(C)c1=O [Example 12, N1-[4-(2,4-Difluorophenyl)-1,3-thiazol-2-yl]-2-(1,3-dimethyl-2,4-dioxo-1,2,3,4-tetrahydrofuro[2,3-d]pyrimidin-5-yl)acetamide]
< 50 nM |  |  | 98.5% | 99.4% | > 100 nM |  | Cn1c(=O)c2c(CC(=O)Nc3nc(-c4ccc(Cl)c(Cl)c4)cs3)coc2n(C)c1=O [Example 13, N1-[4-(3,4-Dichlorophenyl)-1,3-thiazol-2-yl]-2-(1,3-dimethyl-2,4-dioxo-1,2,3,4-tetrahydrofuro[2,3-d]pyrimidin-5-yl)acetamide]
< 50 nM |  |  | 99.3% | 99.8% |  |  | Cn1c(=O)c2c(CC(=O)Nc3nc(-c4ccc(OC(F)F)c(Br)c4)cs3)coc2n(C)c1=O [Example 25, N1-[4-(3-Bromo-4-difluoromethoxyphenyl)-1,3-thiazol-2-yl]-2-(1,3-dimethyl-2,4-dioxo-1,2,3,4-tetrahydrofuro[2,3-d]pyrimidin-5-yl)acetamide]
< 50 nM |  |  | 97.9% | 98.1% |  |  | Cn1c(=O)c2c(CC(=O)Nc3nc(-c4cc(F)c(F)cc4F)cs3)coc2n(C)c1=O [Example 33, N1-[4-(2,4,5,-Trifluorophenyl)-1,3-thiazol-2-yl]-2-(1,3-dimethyl-2,4-dioxo-1,2,3,4-tetrahydrofuro[2,3-d]pyrimidin-5-yl)acetamide]
 |  |  |  |  |  | 247 nM | Cc1oc2c(c1CC(=O)Nc1nc(-c3cc(F)c(Cl)cc3Cl)cs1)c(=O)n(C)c(=O)n2C [Example 79, N1-[4-(2,4-Dichloro-5-fluorophenyl)-1,3-thiazol-2-yl]-2-(1,3,6-trimethyl-2,4-dioxo-1,2,3,4-tetrahydrofuro[2,3-d]pyrimidin-5-yl)acetamide]

The remaining lines, values behind:

SMILES | IC50 ([1]; class symbols) | inhibition at 10 µM [2] | inhibition at 1 µM [2] | inhibition at 1 µM [1] | inhibition at 10 µM [1] | IC50 [2] | IC50 ([1]; numeric values)
Cn1c(=O)c2c(CC(=O)Nc3ccc(Oc4ccc(C(F)(F)F)cc4)cc3)coc2n(C)c1=O [Example 1, N1-[4-(4-Trifluoromethylphenoxy)phenyl]-2-(1,3-dimethyl-2,4-dioxo-1,2,3,4-tetrahydrofuro[2,3-d]pyrimidin-5-yl)acetamide] | > 100 nM | 100% | 96.7% |  |  |  | 
Cn1c(=O)c2c(CC(=O)NCCc3ccc(Cl)cc3Cl)coc2n(C)c1=O [Example 2, N1-[2-(2,4-Dichlorophenyl)ethyl]-2-(1,3-dimethyl-2,4-dioxo-1,2,3,4-tetrahydrofuro[2,3-d]pyrimidin-5-yl)acetamide] |  |  |  | 17.7% | 28.4% |  | 
Cn1c(=O)c2c(CC(=O)Nc3nc(C(F)(F)F)cs3)coc2n(C)c1=O [Example 3, N1-[4-(Trifluoromethyl)-1,3-thiazol-2-yl]-2-(1,3-Dimethyl-2,4-dioxo-1,2,3,4-tetrahydrofuro[2,3-d]pyrimidin-5-yl)acetamide] |  |  |  | 6.44% | 45.8% |  | 
Cn1c(=O)c2c(CC(=O)Nc3nc4c(F)cc(F)cc4s3)coc2n(C)c1=O [Example 4, N-(4,6-Difluoro-1,3-benzothiazol-2-yl)-2-(1,3-dimethyl-2,4-dioxo-1,2,3,4-tetrahydrofuro[2,3-d]pyrimidin-5-yl)acetamide] |  |  |  | 14.5% | 57.3% |  | 
CC(C)Cc1ccc(-c2csc(NC(=O)Cc3coc4c3c(=O)n(C)c(=O)n4C)n2)cc1 [Example 5, N1-[4-(4-Isobutylphenyl)-1,3-thiazol-2-yl]-2-(1,3-dimethyl-2,4-dioxo-1,2,3,4-tetrahydrofuro[2,3-d]pyrimidin-5-yl)acetamide] |  |  |  | 27% | 99.8% |  | 
Cn1c(=O)c2c(CC(=O)Nc3nc(-c4ccc(C(F)(F)F)cc4)cs3)coc2n(C)c1=O [Example 6, N1-{4-[4-(Trifluoromethyl)phenyl]-1,3-thiazol-2-yl}-2-(1,3-dimethyl-2,4-dioxo-1,2,3,4-tetrahydrofuro[2,3-d]pyrimidin-5-yl)acetamide] | < 50 nM |  |  | 100% | 99.6% |  | 
CC(C)COc1ccc(-c2csc(NC(=O)Cc3coc4c3c(=O)n(C)c(=O)n4C)n2)cc1Br [Example 29, N1-[4-(3-Bromo-4-isobutoxyphenyl)-1,3-thiazol-2-yl]-2-(1,3-dimethyl-2,4-dioxo-1,2,3,4-tetrahydrofuro[2,3-d]pyrimidin-5-yl)acetamide] | > 100 nM |  |  | 98.6% | 99.8% |  | 
CC(C)CCOc1c(F)cc(-c2csc(NC(=O)Cc3coc4c3c(=O)n(C)c(=O)n4C)n2)cc1F [Example 45, N1-{4-[3,5-Difluoro-4-(3-methylbutoxy)phenyl]-1,3-thiazol-2-yl}-2-(1,3-dimethyl-2,4-dioxo-1,2,3,4-tetrahydrofuro[2,3-d]pyrimidin-5-yl)acetamide] | < 50 nM |  |  | 90.7% | 98.1% |  | 
